# According to US12403184B2, “Compositions and methods for treating neurodegenerative disroders” (priority 2018, dated 2025):
# Where no end group is shown, it is not given here.
# What was measured:
# [1] = system: activated microglial cells; assay: Iba1 immunofluorescence of microglial activity in HD mouse striatum; type: in vivo
# Procedure: For Iba1 immunofluorescence staining, mice were deeply anesthetized and transcardially perfused with 4% paraformaldehyde in PBS. Frozen brain sections (10 μm, coronal) were permeabilized with 0.1% Triton X-100 in TBS-T buffer followed by blocking with 5% normal goat serum. The brain sections were then incubated with anti-Iba1 antibody (1:500 dilution) for overnight at 4° C., followed by staining with Alex-488 anti-rabbit secondary antibody (1:2000 dilution). Iba1-immunopositive cells in the […] were quantitated by image J software.
# [2] = system: neurons derived from HD patients; assay: mitoROS (mitoSOX probe) in neurons derived from iPS cells; type: cell-based, human
# Procedure: iPS cells from a normal subject and a HD patient (carrying 41 CAG repeats) were differentiated into neurons using the protocol from our previous studies. Briefly, the iPS cells were plated onto 6-well plates precoated with 2.5% Matrigel and allowed to reach 90% confluence in feeder-free medium. For the first 10 days, the cells were treated with SB431542 (10 μM; Tocris Bioscience) and Noggin (100 ng/ml) in Neural Media (NM) containing Neurobasal and DMEM (1:1), B-27 supplement minus vitamin A (50×, Invitrogen), N2 supplement (100×, Invitrogen), GlutaMax (Invitrogen, 100×), FGF2 ([…]) and EGF ([…]), and 100 units/ml penicillin and 100 μg/ml streptomycin). For the next 10 days, the cells were treated with human recombinant Sonic hedgehog (SHH, 200 ng/ml), DKK1 (100 ng/ml) and BDNF (20 ng/ml), and 10 μM Y27632 (Sigma) in neuronal differentiation medium containing Neurobasal and DMEM (1:3), B27, N2, GlutaMax, and PS. Cells were then switched to treatment with BDNF (20 ng/ml), ascorbic acid (200 μM, Sigma-Aldrich), cAMP (0.5 mM, Sigma-Aldrich), and Y27632 (10 μM) in neuronal differentiation medium. All growth factors were purchased from PeproTech (Rocky Hill, NJ, USA). […]
# To examine mitochondrial superoxide production, the cells were stained with MitoSOX (Invitrogen, 5 μM for 10 min) at 37° C. […] At least 150 cells/group were counted and quantitated.
# Drp1 = Drp1 mitochondrial level and Drp1 polymerization by western blot in HD mouse striatal cells; type: cell-based
# Procedure: Cells were washed with cold phosphate-buffered saline (PBS) and incubated on ice in mitochondrial lysis buffer (250 mM sucrose, 20 mM HEPES-NaOH, pH 7.5, 10 mM KCl, 1.5 mM MgCl2, 1 mM EDTA, 1 mM EGTA, protease inhibitor cocktail, and phosphatase inhibitor cocktail) for 30 min. The cells were scraped and then disrupted 15 times by repeated aspiration through a 25-gauge needle. Mouse brains were minced and homogenized in mitochondrial lysis buffer to release mitochondria. The homogenates were spun at 800×g for 10 min at 4° C., and the resulting supernatants were spun at 12,000×g for 20 min at 4° C. The pellets were washed with lysis buffer and spun at 12,000×g again for 20 min at 4° C. The final pellets were suspended in lysis buffer containing 1% Triton X-100 and were mitochondrial-rich lysate fractions. The mitochondrial protein voltage-dependent anion channel (VDAC) was used as a loading control.
# (§1) Protein concentration was measured by protein assay dye reagents (Bio-rad). The protein was resuspended in Laemmli buffer, loaded on SDS-PAGE, and transferred onto nitrocellulose membranes. Membranes were probed with the indicated antibodies, followed by visualization with ECL. Representative blots have been cropped for presentation.
# HdhQ111 cells [3] = assay: Mitochondrial superoxide production (MitoSOX) in striatal cells; type: cell-based, mouse; conditions: relative to TAT
# Procedure: To examine mitochondrial superoxide production, the cells were stained with MitoSOX (Invitrogen, 5 μM for 10 min) at 37° C. The cells were then washed with PBS three times and mounted for the image analysis. At least 150 cells/group were counted and quantitated.
# HdhQ111 cells [4] = assay: Western blot of mitochondrial biogenesis and electron transport proteins in striatal cells; type: cell-based, mouse
# Procedure: Mouse striatal cell lines HdhQ7 and Q111 cells are immortalized from knock-in mice carrying 7 and 111 CAG repeats, respectively, in the mouse htt gene. HdhQ7 and HdhQ111 purchased from CHDI Foundation were cultured in DMEM supplemented with 10% (v/v) heat-inactivated FBS, 1% (v/v) penicillin/streptomycin, and 400 μg/ml G418 at 33° C. with 5% CO2. Cells within 14 passages were used in all experiments.
# as §1
# mtDNA = assay: Measurement of mtDNA lesion by quantitative PCR; type: cell-based, mouse; conditions: HdhQ111 cells, relative to TAT
# Source text: Because the movement of the polymerase on the template is blocked at a lesion, qPCR amplification is inversely proportional to the presence of DNA damage. The level of mtDNA lesion will be calculated by comparing the 10 kb mtDNA fragment amplification, as described previously. To correct for the possible variations in the rate of mtDNA replication, the amplification of 10 kb mtDNA fragment was normalized to the 91 bp small mtDNA amplicon. Specifically, Total DNA was isolated as shown above. The amplification profile consisted of a 45-s denaturation at 94° C., 22 cycles of denaturation for 15 s at 94° C., annealing/extension at 64° C. for 12 min, and a final extension at 72° C. for 10 min.
# wildtype mice = assay: Tolerability of DA1 treatment in wildtype mice; type: in vivo, mouse
# Procedure: Systemic peptide treatment in HD mice. All randomization and peptide treatments were prepared by an experimenter not associated with behavioral and neuropathology analysis. […] […] The pump was replaced once every month.
# The body weight and survival rate of HD mice and wild-type littermates were recorded throughout the study period.
# [5] = HdhQ111 cells, 1 μM/day for 4 days
# [6] = 1 mg/kg/day for 30 days, Alzet mini pumps, vs saline
substance,measurement,setting,value
"YGRKKRRQRRRGGEDKRKT-NH2 [DA1, YGRKKRRQRRR-GG-EDKRKT-NH2]",inflammatory response (Iba1-marked activated microglial cells),"[1]; HD R6/2 mouse striatum, 12 weeks old",corrected
same,inflammatory response (Iba1-marked activated microglial cells),"[1]; YAC128 mouse striatum, 6 months old",corrected
same,mitoROS,[2],decreased
same,Drp1 polymerization,Drp1; HD mouse striatal cells,abrogated
same,Drp1 translocation to the mitochondria,"Drp1; HD mouse striatal cells, 1 μM/day for 4 days",abrogated
same,inhibitory effect on Drp1 tetramer formation,Drp1; upon ATAD3A knockdown,abolished upon ATAD3A knockdown
same,mitochondrial oxidative stress (mitoROS),HdhQ111 cells [3],suppressed
same,elevation of TFAM level by DA1 treatment,HdhQ111 cells [4]; HD mutant cells with ATAD3A knockdown (siRNA),ATAD3A knockdown abolished
same,nuclear-encoded mitochondrial respiratory chain components,HdhQ111 cells [4]; HdhQ111 cells,no effect
same,PGC1α level,HdhQ111 cells [4]; [5],restored
same,TFAM level,HdhQ111 cells [4]; [5],restored
same,mtCO2 protein level,HdhQ111 cells [4]; [5],corrected
same,mtDNA lesion,mtDNA,diminished
same,lifespan,wildtype mice,no effect
same,relative weight (spleen/body weight),wildtype mice; [6],no effects
same,spleen morphology,wildtype mice; [6],no effects
same,visible side effects in organs,wildtype mice; 1 mg/kg/day subcutaneously,did not cause
same,weight loss,wildtype mice; 1 mg/kg/day subcutaneously,did not cause
same,behavioral status,wildtype mice; sustained treatment,minor effects
